In ChEMBL document CHEMBL5365475, “Design, synthesis and antiplasmodial evaluation of new amide-, carbamate-, and ureido-type harmicines” (Bioorg Med Chem, 2023):
Activity calls are given as the source filed them. The rule behind the calls is not given here.

Key:
Plasmodium falciparum [1] = assay: Antimalarial activity against erythrocytic stage of chloroquine-sensitive Plasmodium falciparum 3D7 measured after 3 days by HRP2-ELISA analysis; assay type: functional, organism-based; details: 3D7, 72 h
Plasmodium falciparum [2] = assay: Antimalarial activity against erythrocytic stage of chloroquine-resistant Plasmodium falciparum Dd2 measured after 3 days by HRP2-ELISA analysis; assay type: functional, organism-based; details: Dd2, 72 h
Plasmodium falciparum [3] = assay: Resistance index, ratio of IC50 for antiplasmodial activity against chloroquine-resistant Plasmodium falciparum Dd2 to IC50 for antiplasmodial activity against chloroquine-sensitive Plasmodium falciparum 3D7; assay type: functional
HepG2 = assay: Cytotoxicity against human HepG2 cells assessed as reduction in cell viability incubated for 72 hrs by MTT assay; assay type: functional, cell-based; details: HepG2, 72 h
[4] = Selectivity index, ratio of IC50 for cytotoxicity against human HepG2 cells to IC50 for erythrocytic stage of chloroquine-sensitive Plasmodium falciparum 3D7; assay type: toxicity, cell-based; details: read-out: Ratio IC50
Plasmodium berghei [5] = assay: Antiplasmodial activity against luciferase-expressing Plasmodium berghei infected in human Huh-7 cells assessed as reduction in parasite load at 1 to 10 uM preincubated with cells for 1 hr followed by parasite infection and measured after 46 hrs by bioluminescence assay; assay type: functional, organism-based; details: dose 1-10 µM, time 47.0 hrs
Plasmodium berghei [6] = assay: Antiplasmodial activity against luciferase-expressing Plasmodium berghei infected in human Huh-7 cells assessed as reduction in parasite load preincubated with cells for 1 hr followed by parasite infection and measured after 46 hrs by bioluminescence assay; assay type: functional, organism-based

COc1ccc2c3ccnc(C)c3n(CCNC(=O)/C=C/c3cccc(Cl)c3)c2c1
IC50 (Plasmodium falciparum [1]): 330 nM
IC50 (Plasmodium falciparum [2]): 680 nM
Ratio IC50 (Plasmodium falciparum [3]): 2.06
IC50 (HepG2): 8.97 µM
selectivity ratio [4]: 25.6
Activity (Plasmodium berghei [5]): Active

CCCOc1ccc(/C=C/CNC(=O)NCCn2c3cc(OC)ccc3c3ccnc(C)c32)cc1
IC50 (Plasmodium falciparum [1]): 420 nM
IC50 (Plasmodium falciparum [2]): 1120 nM
Ratio IC50 (Plasmodium falciparum [3]): 2.67
IC50 (HepG2): 4.33 µM
selectivity ratio [4]: 10.3
Activity (Plasmodium berghei [5]): Active

COc1ccc2c3ccnc(C)c3n(CCNC(=O)/C=C/c3cccc(OC(F)(F)F)c3)c2c1
IC50 (Plasmodium falciparum [1]): 350 nM
IC50 (Plasmodium falciparum [2]): 2110 nM
Ratio IC50 (Plasmodium falciparum [3]): 6.03
IC50 (HepG2): 6.64 µM
selectivity ratio [4]: 16.2
IC50 (Plasmodium berghei [6]): 2290 nM
Activity (Plasmodium berghei [5]): Active

COc1ccc2c3ccnc(C)c3n(CCNC(=O)NC/C=C/c3cccc(C(F)(F)F)c3)c2c1
IC50 (Plasmodium falciparum [1]): 220 nM
IC50 (Plasmodium falciparum [2]): 1070 nM
Ratio IC50 (Plasmodium falciparum [3]): 4.86
IC50 (HepG2): 9.84 µM
selectivity ratio [4]: 44.7
IC50 (Plasmodium berghei [6]): 2890 nM
Activity (Plasmodium berghei [5]): Active

COc1ccc2c3ccnc(C)c3n(CCNC(=O)OC/C=C/c3cccc(Cl)c3)c2c1
IC50 (Plasmodium falciparum [1]): 970 nM
IC50 (Plasmodium falciparum [2]): 1190 nM
Ratio IC50 (Plasmodium falciparum [3]): 1.23
IC50 (HepG2): 8.52 µM
selectivity ratio [4]: 8.78
Activity (Plasmodium berghei [5]): Active

COc1ccc2c3ccnc(C)c3n(CCNC(=O)OC/C=C/c3ccc(Br)cc3)c2c1
IC50 (Plasmodium falciparum [1]): 420 nM
IC50 (Plasmodium falciparum [2]): 1090 nM
Ratio IC50 (Plasmodium falciparum [3]): 2.6
IC50 (HepG2): 9.05 µM
selectivity ratio [4]: 21.6
Activity (Plasmodium berghei [5]): Active

COc1ccc2c3ccnc(C)c3n(CCNC(=O)/C=C/c3ccc(Br)cc3)c2c1
IC50 (Plasmodium falciparum [1]): 410 nM
IC50 (HepG2): 8.58 µM
selectivity ratio [4]: 8.76
Activity (Plasmodium berghei [5]): Active

COc1ccc2c(c1)[nH]c1c(C)nccc12 [HARMINE]
IC50 (Plasmodium falciparum [2]): > 27700 nM
Ratio IC50 (Plasmodium falciparum [3]): > 3.36
IC50 (HepG2): > 250 µM
selectivity ratio [4]: 30

COc1ccc2c3ccnc(C)c3n(CCNC(=O)OC/C=C/c3cc(C(F)(F)F)cc(C(F)(F)F)c3)c2c1
IC50 (Plasmodium falciparum [1]): 650 nM
IC50 (Plasmodium falciparum [2]): 2630 nM
Ratio IC50 (Plasmodium falciparum [3]): 4.05
IC50 (HepG2): 7.19 µM
selectivity ratio [4]: 21.8

COc1ccc2c3ccnc(C)c3n(CCNC(=O)OC/C=C/c3ccc(C)cc3)c2c1
IC50 (Plasmodium falciparum [1]): 1130 nM
IC50 (Plasmodium falciparum [2]): 2280 nM
Ratio IC50 (Plasmodium falciparum [3]): 2.48
IC50 (HepG2): 9.92 µM
selectivity ratio [4]: 8.78
Activity (Plasmodium berghei [5]): Active

COc1ccc2c3ccnc(C)c3n(CCNC(=O)OC/C=C/c3ccc([N+](=O)[O-])cc3)c2c1
IC50 (Plasmodium falciparum [1]): 360 nM
IC50 (Plasmodium falciparum [2]): 330 nM
Ratio IC50 (Plasmodium falciparum [3]): 0.92
Activity (Plasmodium berghei [5]): Active

COc1ccc2c3ccnc(C)c3n(CCNC(=O)OC/C=C/c3cccc(C(F)(F)F)c3)c2c1
IC50 (Plasmodium falciparum [1]): 500 nM
IC50 (Plasmodium falciparum [2]): 1920 nM
Ratio IC50 (Plasmodium falciparum [3]): 3.84
Activity (Plasmodium berghei [5]): Active

COc1ccc2c3ccnc(C)c3n(CCNC(=O)OC/C=C/c3cccc(OC(F)(F)F)c3)c2c1
IC50 (Plasmodium falciparum [1]): 680 nM
IC50 (Plasmodium falciparum [2]): 1780 nM
Ratio IC50 (Plasmodium falciparum [3]): 2.62
IC50 (HepG2): 8.71 µM
selectivity ratio [4]: 12.8
Activity (Plasmodium berghei [5]): Active

COc1ccc2c3ccnc(C)c3n(CCNC(=O)OC/C=C/c3ccccc3)c2c1
IC50 (Plasmodium falciparum [1]): 550 nM
IC50 (Plasmodium falciparum [2]): 1370 nM
Ratio IC50 (Plasmodium falciparum [3]): 2.49
IC50 (HepG2): 7.21 µM
selectivity ratio [4]: 18.5
IC50 (Plasmodium berghei [6]): 3380 nM
Activity (Plasmodium berghei [5]): Active

COc1cc(NC(C)CCCN)c2ncccc2c1 (configuration not stated)
Activity (Plasmodium berghei [5]): Active

COc1ccc2c3ccnc(C)c3n(CCNC(=O)/C=C/c3ccc(C)cc3)c2c1
IC50 (Plasmodium falciparum [1]): 980 nM
IC50 (Plasmodium falciparum [2]): 640 nM
Ratio IC50 (Plasmodium falciparum [3]): 0.65
IC50 (HepG2): 8.16 µM
selectivity ratio [4]: 6
Activity (Plasmodium berghei [5]): Active

COc1ccc2c3ccnc(C)c3n(CCNC(=O)OC/C=C/c3ccc(C(F)(F)F)cc3)c2c1
IC50 (Plasmodium falciparum [1]): 790 nM
IC50 (Plasmodium falciparum [2]): 700 nM
Ratio IC50 (Plasmodium falciparum [3]): 0.89
IC50 (HepG2): 6.71 µM
selectivity ratio [4]: 8.49
Activity (Plasmodium berghei [5]): Active

COc1ccc2c3ccnc(C)c3n(CCNC(=O)OC/C=C/c3ccccc3Cl)c2c1
IC50 (Plasmodium falciparum [1]): 1240 nM
IC50 (Plasmodium falciparum [2]): 1330 nM
Ratio IC50 (Plasmodium falciparum [3]): 1.07

COc1ccc2c3ccnc(C)c3n(CCNC(=O)/C=C/c3ccccc3Cl)c2c1
IC50 (Plasmodium falciparum [1]): 320 nM
IC50 (Plasmodium falciparum [2]): 500 nM
Ratio IC50 (Plasmodium falciparum [3]): 1.56
IC50 (HepG2): 7.19 µM
selectivity ratio [4]: 21.8
Activity (Plasmodium berghei [5]): Active

COc1ccc2c3ccnc(C)c3n(CCNC(=O)/C=C/c3ccc([N+](=O)[O-])cc3)c2c1
IC50 (Plasmodium falciparum [1]): 1360 nM
IC50 (Plasmodium falciparum [2]): 2050 nM
Ratio IC50 (Plasmodium falciparum [3]): 1.51
IC50 (HepG2): 17.5 µM
selectivity ratio [4]: 31.8
Activity (Plasmodium berghei [5]): Active

CCCOc1ccc(/C=C/COC(=O)NCCn2c3cc(OC)ccc3c3ccnc(C)c32)cc1
IC50 (Plasmodium falciparum [1]): 390 nM
IC50 (Plasmodium falciparum [2]): 830 nM
Ratio IC50 (Plasmodium falciparum [3]): 2.13
IC50 (HepG2): 9.96 µM
selectivity ratio [4]: 19.9
Activity (Plasmodium berghei [5]): Active
